PubChem BioAssay (NCI)
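Following 48 hours of exposure in 96-well plates, responses at five concentrations were used to interpolate endpoints linearly. Here, GI50 denotes the concentration required for 50% inhibition of growth. At the TGI there is no net growth.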 Activity calls are given as the source filed them. Cut-off read from the data, not from the text of the source: active = GI50 below about 0.43 µM; inactive = the rest.

Each compound was assayed on MDA-MB-468 breast (assay: NCI tumour cell line growth inhibition, 48 h).

Structure (SMILES) | GI50 [nM] | TGI [nM] | outcome
N#CC1=C(N)Oc2c(ccc3ccccc23)C1c1ccccc1Cl (stereo unspecified) | 466 | 20700 | –
COc1cc(C2C3=C(COC3=O)N(CCO)c3cc4c(cc32)CCC4)cc(OC)c1OC (stereo unspecified) | 61.7 | 151 | –
COc1ccc(/C=C2\CN(Cc3cn(CCCNc4ccnc5cc(Cl)ccc45)nn3)C/C(=C\c3ccc(OC)cc3)C2=O)cc1 | 11900 | 26200 | –
Cc1cc(N2CCOCC2)nc(N(CCNc2ccnc3cc(Cl)ccc23)Cc2cccs2)n1 | 2110 | 5080 | –
O=C(/C=C\c1ccc(Cl)c(Cl)c1)c1ccccc1 | 14300 | 36900 | –
COC(=O)[C@@H](C)C[C@H](Cc1ccccc1)NC(=O)c1cccc([C@@H](C[C@H](C(C)C)N(C)C(=O)[C@@H](NC(=O)[C@H]2CCCCN2C)C(C)C)OC(C)=O)n1 | < 1.67 | 143 | –
Cc1nc2cc(NC(=O)CN3CCN(CCN4C(=O)c5cccc6cccc(c56)C4=O)CC3)ccc2s1 | 3630 | 16600 | –
COc1ccc(C2CC(c3ccc(OC)c(OC)c3)=NN2C(=O)c2cc(OC)c(OC)c(OC)c2)cc1 (stereo unspecified) | 575 | 5210 | –
COc1ccc(N2CCN(CC(=O)N3CCN(c4nnc(-c5ccc(Cl)cc5)c(-c5ccc(Cl)cc5)n4)CC3)CC2)cc1 | 11500 | 45500 | –
CN(C)CCCn1c2c(c3ccncc3c1=O)C(=O)c1ccccc1-2 | 461 | 3020 | –
CCOC(=O)C(Cc1ccc(N(CCCl)CCCl)cc1)NC(=O)C(CC(C)C)NC(C)=O (stereo unspecified) | 426 | 2180 | –
CCC(CC)N1C(=O)/C(=c2\sc3n(c2=O)C2C(NN=3)N(CC)C(=O)N2CC)c2ccccc21 (stereo unspecified) | 489 | 27000 | –
COc1ccc(/C(C)=C(\c2ccc(Cl)cc2)c2ccc(OCCN3CCCCC3)cc2)cc1F | 2490 | 5620 | –
Cn1cnc2nc(Cl)nc(Cl)c21 | 3680 | 18700 | –
COc1ccc(C2CC(c3cccc(Nc4ccnc5cc(Cl)ccc45)c3)=NN2c2ccc(Cl)cc2)cc1 (stereo unspecified) | 4450 | 40300 | –
CC(CCC/C=C/CCCN(C)C(=N)N)CC(C)C1OC(=O)C(C)C(O)/C=C/C(C)C(O)C(C)C(O)C(C)C(O)CCCC(O)CC2(O)OC(CC(OC(=O)CC(=O)O)CC(O)CC(O)C(C)C(O)/C=C/C=C/C1C)CC(O)C2O (stereo unspecified) | 1770 | 3290 | inactive
CCCCc1ccc(C(N)=O)nc1 | > 100000 | > 100000 | –
COc1c(C)cnc(Cn2cnc3c(Cl)nc(N)nc32)c1C | 169 | 1530 | –
CC1SC(c2cccc(Oc3ccccc3)c2)N(CCc2cccs2)C1=O (stereo unspecified) | 745 | 2910 | –
CCN(CC)CCCC(C)NC(=S)N/N=C(\C)c1ccccn1 (stereo unspecified) | 1890 | 5650 | –

Structure (SMILES) | GI50 [nM] | TGI [nM] | outcome
Cc1cc(F)cc(NS(=O)(=O)c2ccc(-c3cnc(C4CC4)o3)cc2)c1 | 79 | 2420 | –
Cn1c([N+](=O)[O-])cnc1/C=C1\Oc2ccc(Cl)cc2C1=O | 1920 | 4790 | –
Oc1ccc(-c2nc(-c3ccc4oc5ccc(-c6[nH]c(-c7ccc(O)cc7)nc6-c6ccccc6)cc5c4c3)c(-c3ccccc3)[nH]2)cc1 | 6650 | 88500 | –
O=C(/C=C/CN1CCCCC1)Nc1cc2c(Nc3ccc(F)c(Cl)c3F)ncnc2cc1OCCOC(F)F | < 10 | 11.8 | –
CN1CCN(Cc2ccc(NC(=O)c3cncc(C#Cc4c(N)ncc5ccc(F)cc45)c3)cc2C(F)(F)F)CC1 | 4190 | 12300 | –
Cc1cccc(NC(=O)c2sc3nc4c(cc3c2N)CCC4)c1C | 196 | 685 | –
O=C1/C(=C/c2ccc([N+](=O)[O-])s2)Oc2ccc(Cl)cc21 | 440 | 1560 | –
CC(=O)OC1C(OC/C2=C/C3[C@@H](C(C)C)CC=C(C)[C@@H]3CC(OC(=O)/C=C/c3cn(C)cn3)[C@]3(C)C=C[C@@]2(O)O3)OCC(O)C1O (stereo partly specified) | 10.8 | 98.8 | –
CCCCCCn1c(=N)n(CC(O)COc2cccc(C)c2)c2ccccc21 (stereo unspecified) | 1710 | 3540 | –
CCS(=O)(=O)Nc1ccc(Oc2ccc(F)cc2F)c(-c2cn(C)c(=O)c3[nH]ccc23)c1 | 51.2 | 5010 | –
C#Cc1cccc(NC(=O)Nc2cccc(NC(=O)CCl)c2)c1 | 19400 | 78700 | –
CCOC(=O)c1ccccc1NC(c1ccccc1)c1ccc2cccnc2c1O (stereo unspecified) | 2450 | 6860 | –
CCN(CC)CCC(CNc1c2ccc(Cl)cc2nc2ccc(OC)cc12)c1ccccc1 (stereo unspecified) | 1570 | 3010 | –
C=CC(=O)N1CC[C@@H](Oc2nc(Nc3ccc(N4CCC(N5CCN(C)CC5)CC4)cc3)c(C(N)=O)nc2CC)C1 | > 100000 | > 100000 | –
CNCc1ccc(C)c(NC(=O)c2ccc(Nc3nc(-c4ccccc4)c4ccccc4n3)cc2)c1 | 1610 | 3130 | –
Cn1cc(C2=C(c3cn(CCCSC(=N)N)c4ccccc34)C(=O)NC2=O)c2ccccc21 | 569 | 1900 | –
Oc1c(Br)cc(Br)c2cccnc12 | 2430 | 7530 | –
C=C1C(=O)O[C@H]2[C@H]1CC/C(Cn1cc(CNC(=O)c3cc4ccccc4[nH]3)nn1)=C\CC[C@@]1(C)O[C@@H]21 | 1450 | 3660 | –
COc1cc2c(cc1Nc1nc(Nc3ccsc3C(N)=O)c3cc[nH]c3n1)N(C(=O)CN(C)C)CCC2 | 82.7 | 947 | –
Cc1nn(-c2ccccc2)c2ncc3c(c12)C(=O)N(Cc1ccccc1)C3=O | 9210 | > 100000 | –
